Measured values: patent publication US9937194B1, “Compounds and methods for treating inflammatory diseases” (priority 2009, dated 2018)
In brackets after ≈: the same amount, converted by molar mass. Several values for one entry are separate records, joined by “and”; a condition that tells them apart may be missing. Equal values may be shown once.

What was measured:
E. faecium ATCC 19434 = assay: MIC; type: cell-based
S. aureus MRSA 33591 = assay: MIC; type: cell-based
E. coli ATCC 25922 = assay: MIC; type: cell-based; settings: in µg/mL
[1] = system: S. aureus 96:11480 (MLS-I); assay: MIC; type: cell-based; design: unit not given beside the values
MMP9 = assay: PMA-induced MMP9 expression in U937 cells (gelatin zymography); type: cell-based, human; settings: for MMP9 inhibition (%): test concentration not given, bracketed second value not explained
Experimental: Zymography. MMP9 enzyme activity is measured by gelatin zymography. 5 μl of supernatants were diluted with 5 μl Laemli sample buffer (Bio-Rad) and are loaded on a Novex® 10% Zymogram (Gelatin) gel (Invitrogen). After electrophoresis (90 min, 125 V, 35 mA, 5 W) gels are incubated with 1× Novex® zymogram renaturing buffer (Invitrogen) for 30 min at room temperature with gentle agitation. Gels are then rinsed in 1× Novex® zymogram developing buffer (Invitrogen) for 30 min at room temperature with gentle agitation prior to overnight incubation in the developing buffer at 37° C. After incubation the gels are stained using the colloidal blue staining kit (Invitrogen) with buffer containing 20% methanol and 70% distilled water to visualize the zymogen bands. Relevant band intensities are quantified by densitometric analysis using the UVP GelDoc-It system.
Effects of compounds on PMA-induced MMP9 expression in U937 cells. U937 cells are pretreated with compounds described herein for 1 hr, followed by PMA (50 ng/ml) treatment for 48 hrs. After 48 hrs supernatants are collected for zymography. MMP9 enzyme activity is measured by gelatin zymography. Data are expressed as fold changes against positive control treated with PMA only. Values represent means of three experiments±SEM.

S. pneumoniae 163 (MefA) = assay: MIC; type: cell-based; settings: in µg/mL
[2] = system: S. aureus ATCC 29213 (MSSA) MLS-S; assay: MIC; type: cell-based
K. pneumonia 13883 = assay: MIC; type: cell-based; settings: in µg/mL
H. influenzae LC002 = assay: MIC; type: cell-based
IL-8 = assay: LPS-induced IL-8 release in PMA-differentiated U937 cells (ELISA); type: cell-based, human; settings: test concentration not given
Experimental: (§1) Cytokine ELISA. LPS-induced IL-8, TNFα concentrations and TNFα-induced IL-8 concentrations are determined by sandwich ELISA according to the manufacturer's instructions (R&D Systems Europe). IC50 values for dexamethasone on IL-8 production are calculated using the computer program Prism 4.0 (GraphPad Software Inc., San Diego, Calif.) as a marker for steroid sensitivity.
(§2) Effects of compounds on LPS-induced IL-8 and TNFα release in PMA-differentiated U937 cells. PMA-differentiated macrophage-like cells are pretreated with compounds described herein for 1 hr, followed by LPS (100 ng/ml) stimulation for 4 hrs. LPS-induced IL-8 and TNFα release is evaluated by ELISA. Values represent means of three experiments±SEM.

S. pneumoniae 303 (ErmB) = assay: MIC; type: cell-based
S. pyogenes ATCC 19615 = assay: MIC; type: cell-based; settings: in µg/mL
H. influenzae ATCC 49247 = assay: MIC; type: cell-based
[3] = system: S. typhimurium ATCC 14028; assay: MIC; type: cell-based; settings: in µg/mL
[4] = type: cell-based; settings: test concentration not given
Experimental: The human monocytic cell line U937 and the human type II alveolar epithelial carcinoma cell line A549 were obtained from the American Type Culture Collection (ATCC, Rockville, Md.). PBMCs from COPD patients were obtained in Brompton hospital and separated by AccuSPIN (Sigma-Aldrich, Poole, UK). Cells were cultured in complete growth medium (Sigma-Aldrich) (RPMI 1640 for U937, PBMCs, and Dulbecco's modified essential medium (DMEM) for A549) supplemented with 10% fetal bovine serum (FBS) and 1% L-glutamine at 37° C. in a humidified atmosphere with 5% CO2. U937 were differentiated into an adherent macrophage-like morphology by exposure to PMA (50 or 100 ng/ml) for 48 hrs in complete growth medium. Cell viability was assessed microscopically by trypan blue staining. Cell toxicity was determined by MTT assay as needed. This study was approved by the ethics committee of the Royal Brompton Hospitals, and all subjects gave written informed consent.

HDAC activity = assay: H2O2-induced reduction of HDAC activity in PMA-differentiated U937 cells; type: cell-based, human; settings: for restoration of H2O2-reduced HDAC activity (%): test concentration not given, bracketed second value not explained
Experimental: In cell HDAC assay. Cells are incubated with Fluor de Lys™ substrate for 1 hr before lyses. Total HDAC activity from whole cell extracts is measured using the HDAC Fluorimetric Assay/Drug Discovery Kit (BIOMOL® International, Inc., Plymouth Meeting, Pa.).
HDAC expression: In cell HDAC activity assay: U937 is differentiated to macrophage type cells by PMA for 3 days. HDAC fluorescent substrate (Biomol) is added before exposure of oxidative stress (H2O2, 200 μM) or Tobacco smoke conditioned medium for 4 hrs. HDAC activity is measured (Biomol kit). Compounds at different concentrations are treated 20 min before oxidative stress treatment.
PMA-differentiated macrophage-like cells are pretreated with compounds described herein for 20 min. After H2O2 (200 μM) stimulation for 4 hrs, HDAC activity is assayed. Data are expressed as fold changes against positive control treated with H2O2 only. Values represent means of four experiments±SEM.

TNFα = assay: LPS-induced TNFα release in PMA-differentiated U937 cells (ELISA); type: cell-based, human; settings: test concentration not given
Experimental: as §1, §2

S. pneumoniae ATCC 49619 = assay: MIC; type: cell-based
[5] = system: N. gonorrhoeae ATCC 49226; assay: MIC; type: cell-based; design: unit not given beside the values
P. aeruginosa ATCC 27853 = assay: MIC; type: cell-based

| Structure (SMILES) | MIC E. faecium ATCC 19434 (E. faecium ATCC 19434) [µg/mL] | MIC S. aureus MRSA 33591 (S. aureus MRSA 33591) [µg/mL] | MIC E. coli ATCC 25922 (E. coli ATCC 25922) | MIC S. aureus 96:11480 (MLS-I) [1] | MMP9 inhibition (%) (MMP9) | MIC S. pneumoniae 163 (MefA) (S. pneumoniae 163 (MefA)) | MIC S. aureus ATCC 29213 (MSSA) MLS-S [2] [µg/mL] | MIC K. pneumonia 13883 (K. pneumonia 13883) | MIC H. influenzae LC002 (H. influenzae LC002) [µg/mL] | IL-8 inhibition (%) (IL-8) | MIC S. pneumoniae 303 (ErmB) (S. pneumoniae 303 (ErmB)) [µg/mL] | MIC S. pyogenes ATCC 19615 (S. pyogenes ATCC 19615) | MIC H. influenzae ATCC 49247 (H. influenzae ATCC 49247) [µg/mL] | MIC S. typhimurium ATCC 14028 [3] | Cell Toxicity (% cell death) [4] [%] | restoration of H2O2-reduced HDAC activity (%) (HDAC activity) | TNFα inhibition (%) (TNFα) | MIC S. pneumoniae ATCC 49619 (S. pneumoniae ATCC 49619) [µg/mL] | further results |
| --- | --- | --- | --- | --- | --- | --- | --- | --- | --- | --- | --- | --- | --- | --- | --- | --- | --- | --- | --- |
| CCC1OC(=O)C(C)C(=O)C(C)C(OC2OC(C)CC(N(C)C)C2O)C(C)(OC)CC(C)C(=O)C(C)C2N(CCCCN)C(=O)OC12C (stereo not drawn) [Example 1] | 4 (≈ 5.85 µM) | > 64 | >64 | 8 | 55 (43) % | 0.5 and 1 | 8 (≈ 11.7 µM) | >64 | > 64 | 72 | > 64 | 0.25 and 0.5 | > 64 | >64 | 6 | 68 (53) % | 73 | ≤ 0.125 | concentration at which PMA-induced MMP9 up-regulation is inhibited (MMP9; U937, pretreated 1 hr, PMA 50 ng/ml 48 hrs): ≥ 300 µM; concentration at which the H2O2-induced reduction in HDAC activity is restored (HDAC activity; PMA-differentiated U937, pretreated 20 min, H2O2 200 μM 4 hrs): ≥ 100 µM |
| CC[C@H]1OC(=O)[C@H](C)C(=O)[C@H](C)[C@@H](O[C@H]2C[C@@H](N(C)C)[C@H](O)[C@@H](C)O2)[C@@](C)(OC)C[C@@H](C)C(=O)[C@H](C)[C@H]2N(CCCCn3cc(-c4ccccn4)nn3)C(=O)O[C@]12C [Example 21] | > 64 | > 64 |  |  | 49 (41) % |  | > 64 | >64 | > 64 | 59 |  |  | > 64 |  | 3 | 36% | 14 | > 64 |  |
| CCC1OC(=O)C(C)(F)C(=O)C(C)C(OC2OC(C)CC(N(C)C)C2O)C(C)(OC)CC(C)C(=O)C(C)C2N(CCCCn3cc(Cn4nnc5ccccc54)nn3)C(=O)OC12C (stereo not drawn) [Example 22] | ≤ 0.125 | > 64 | >64 | ≤0.125 | 38 (23) % | 64 | ≤ 0.125 | >64 |  | 76 | ≤ 0.125 |  | 2 (≈ 2.26 µM) | 64 | 11 | 22 (29) % | 48 | ≤ 0.125 | MIC N. gonorrhoeae ATCC 49226 [5]: 0.25; MIC P. aeruginosa ATCC 27853 (P. aeruginosa ATCC 27853): > 64 µg/mL |
| CC[C@H]1OC(=O)[C@H](C)C(=O)[C@H](C)[C@@H](O[C@@H]2O[C@H](C)[C@@H](OC(C)=O)[C@H](NC(C)=O)[C@H]2OC(C)=O)[C@@](C)(OC)C[C@@H](C)C(=O)[C@H](C)[C@H]2N(CCCCn3cc(-c4ccccn4)nn3)C(=O)O[C@]12C [Example 23] | 16 (≈ 17.3 µM) | > 64 |  | >64 | 32 (31) % | 2 | > 64 | >64 | > 64 | 13 | 16 (≈ 17.3 µM) | 16 | > 64 |  | 9 | −13% | 76 | 4 (≈ 4.31 µM) |  |
